Data as given in patent US20230020319A1, “COMPOSITIONS AND METHODS FOR OPTOCHEMICAL CONTROL OF MTOR SIGNALING AND MTOR-DEPENDENT AUTOPHAGY” (The University of Hong Kong, priority 2021, published 2023).
Entries after “also recorded” stand apart in the source; their conditions may differ.

Columns and labels:
mTORC1 signaling pathway = assay: Western blot of mTORC1 signaling (S6K phosphorylation); type: cell-based; conditions: compared with the control group, with or without light (420 nm, 70 mW/cm^2, 3 min)
Method: (§1) FIG. 5 is a photomicrograph showing bands corresponding to each of p-S6K, S6K, p-Akt, Akt, mTOR, and GAPDH, respectively, from cells treated with each of DMSO (control), OSI-027, DEACM, and cOSI-027, respectively, each with (+) or without (−) exposure to light (420 nm, 70 mW/cm^2, 3 min).
(§2) To further investigate the mTOR inhibitory effect of OSI-027 and cOSI-027 with or without light irradiation, western blot was performed to analyze the protein expression level of mTOR pathway (FIG. 5). S6K and Akt phosphorylation ratios were chosen as markers for mTORC1 and mTORC2 signaling pathway investigation, respectively.

mTORC2 signaling pathway = assay: Western blot of mTORC2 signaling (Akt phosphorylation); type: cell-based; conditions: compared with the control group, with or without light (420 nm, 70 mW/cm^2, 3 min)
Method: as §1, §2

autophagy activity = assay: Western blot of autophagy level (LC3-II/LC3-I ratio); type: cell-based
From the text: FIGS. 6A-6B show results of Western blotting and quantification of autophagy. FIG. 6A is a photomicrograph showing bands corresponding to each of LC3-I, LC3-II, and GADPH in cells treated with each of DMSO (control), OSI-027, DEACM, and cOSI-027, respectively, each with (+) or without (−) exposure to light. FIG. 6B is a graph showing normalized LC3-II/LC3-I ratio (0-15) for each of the bands in FIG. 6A including DMSO, OSI-027, DEACM, and cOSI-027, each with or without exposure to light, respectively. Light irradiation was done with a 420 nm LED (70 mW/cm^2, 3 min).
mTORC1 inhibition leads to higher autophagy activity, resulting in enhanced protein degradation ability in the lysosome. Therefore, whether the photochemical-controlled mTOR inhibition strategy can be used for manipulating autophagy activity was investigated. Autophagy level was characterized by the LC3-II/LC3-I ratio through western blot analysis (FIGS. 6A-6B). 24 h after the drug treatment, OSI-027 increased the LC3-II/LC-I ratio compared with the control group, indicating a higher autophagy activity. And cOSI-027 treatment led to a higher LC3-II/LC3-I ratio after light irradiation, compared with non-irradiation group.

[1] = tested on: mCherry-GFP-LC3 transfected HeLa cell line; assay: CLSM of LC3 puncta in mCherry-GFP-LC3 cells; type: cell-based
From the text: FIGS. 7A-7B are photomicrographs showing the presence of mCherry and/or GFP following exposure to different formulations and respective quantitative analysis. FIG. 7A is a panel of photomicrographs showing the presence of mCherry and/or GFP in cells treated with each of DMSO, OSI-027, DEACM, and cOSI-027, each with light irradiation or no light, respectively. FIG. 7B is a graph showing number of LC3 puncta per cell (0-300) for each of the groups in FIG. 7A. Light irradiation was done with a 420 nm LED (70 mW/cm^2, 3 min).
To further validate the photoactivated effect on autophagy, a mCherry-GFP-LC3 transfected HeLa cell line was established to accurately monitor the LC3 expression and subcellular localization.

cancer cells = assay: MTT cell viability assay; type: cell-based
Method: FIG. 8 is a bar graph showing cell viability (0%-150%) for cell groups treated with each of DMSO (control), OSI-027, DEACM, and cOSI-027, each at 50 μM, respectively, each with (+) or without (−) exposure to light. Light irradiation was done with a 420 nm LED (70 mW/cm^2, 3 min).
To investigate the anti-cancer effect of this photo-activatable prodrug system, MTT assay was further conducted to analyze the cell viability after the treatment with different formulations.

[2] = cited from earlier work
[3] = Photocleavage of cOSI-027 by HPLC, 420 nm light; type: physicochemical; conditions: 70 mW/cm^2
Method: FIGS. 4A and 4B show the photocleavage of cOSI-027 by HPLC and quantitative analysis. FIG. 4A is a line graph showing the photocleavage of cOSI-027 by HPLC analysis, with 0-1000 mA.U. at the wavelength (342 nm) for cOSI-027 and for OSI-027 when exposed to 420 nm light at 70 mW/cm^2 for 0, 1, 3, 5, 7, 10, or 15 min, respectively. FIG. 4B is a graph showing remaining cOSI-027 (0-400 μM) and released OSI-027 (0-300 μM) over light irradiation time (0, 1, 3, 5, 7, 10, or 15 min, respectively).
The optochemcial characteristics of the caged OSI-027 prodrug were analyzed by spectroscopy (FIGS. 3A-3C). The absorption peaks of the prodrug were located at 300 nm and 380 nm. The emission peak was located at 460 nm under 380 nm excitation. […] To further verify the photocleavage reaction after light irradiation, high performance liquid chromatography (HPLC) was utilized to monitor the cleavage and release of OSI-027 after light irradiation.

For `COc1cccc2cc(-c3nc([C@H]4CC[C@H](C(=O)O)CC4)n4ncnc(N)c34)[nH]c12` [OSI-027, Trans-4-[4-amino-5-(7-methoxy-1H-indol-2-yl)imidazo[5,1-f][1,2,4]triazin-7-yl]-cyclohexanecarboxylic acid], the “phosphorylation of S6K (marker for mTORC1 signaling)” value (mTORC1 signaling pathway) was “decreased”, the “phosphorylation of Akt (marker for mTORC2 signaling)” value (mTORC2 signaling pathway) was “decreased” and the LC3-II/LC3-I ratio (autophagy activity; 24 h after the drug treatment, compared with the control group) was “increased”. The “number and area of red and yellow puncta in the cells” value ([1]; compared with the control group) was “significantly increase”, the viability at 50 µM (cancer cells; after 48 h incubation) was about 30% and the “patients with stable disease” value ([2]; 8-12-week follow-up assessment) was 29.7 % patients. For the same compound, the “patients free of progression for more than 24 weeks” value ([2]; of the patients with stable disease) was “six” and the “toxicity and adverse effects” value ([2]; phase I clinical trial observations) was “induced dose-limiting toxicities (DLT) and adverse effects; also recorded: induced fatigue, gastrointestinal disorders, decreased cardiac function and cardiomyopathy, bone pain, and hyperglycemia; also recorded: frequently led to renal dysfunction”.
For `CCN(CC)c1ccc2c(COC(=O)C3CCC(c4nc(-c5cc6cccc(OC)c6[nH]5)c5c(N)ncnn45)CC3)cc(=O)oc2c1` (stereo not drawn) [cOSI-027], the “phosphorylation of S6K (marker for mTORC1 signaling)” value (mTORC1 signaling pathway) was “only exhibited significant inhibitory effect on mTORC1 and mTORC2 pathway after light irradiation”, the “phosphorylation of Akt (marker for mTORC2 signaling)” value (mTORC2 signaling pathway) was “only exhibited significant inhibitory effect on mTORC1 and mTORC2 pathway after light irradiation” and the LC3-II/LC3-I ratio (autophagy activity; after light irradiation (420 nm LED, 70 mW/cm^2, 3 min), compared with non-irradiation group) was “higher”. For the same compound, the puncta number ([1]; after light irradiation (420 nm LED, 70 mW/cm^2, 3 min)) was “increased”, the cell viability (cancer cells; 50 μM, after light irradiation (420 nm LED, 70 mW/cm^2, 3 min)) was “significantly lower” and the “release of OSI-027 (HPLC)” value ([3]; after 1 min of 420 nm light irradiation) was “generation of OSI-027 was characterized by the new peak”. The “photocleavage (HPLC)” value ([3]; after 3 min irradiation, 420 nm) was “almost completed”.
